Measurements as given in ChEMBL document CHEMBL1201862, “PubChem BioAssay data set” (2004).
The source made the active and inactive calls.

Tested on: not listed separately
Test: NIH-3T3 fibroblast cytotoxicity, dose response, cytotoxicity control, cell-based, fluorescence, Alamar Blue, secondary assay (AID 2327);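 note: NIH-3T3 mouse fibroblasts cultured with fluconazole at 8 µg/mL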
Type: functional
For `N#Cc1cnn(-c2nc(O)c3c4c(sc3n2)CCCC4)c1N`, the EC50 was 16.9 µM (active). In the case of `Cc1nc2c(C(=O)NCCC(C)C)cnn2c(O)c1Cc1ccccc1F`, the EC50 is reported as > 150 µM (inactive).

Tested on: not listed separately
Test: C. albicans growth with fluconazole, confirmation, fluorescence, retest (AID 2467)
Type: functional, cell-based
For `N#Cc1cnn(-c2nc(O)c3c4c(sc3n2)CCCC4)c1N`, the EC50 was 131 nM (active). For `Cc1nc2c(C(=O)NCCC(C)C)cnn2c(O)c1Cc1ccccc1F`, the EC50 was 4220 nM (active).

Target: T1, Protein skinhead-1 (Caenorhabditis elegans, UniProt P34707)
T1 sequence (P34707 whole entry): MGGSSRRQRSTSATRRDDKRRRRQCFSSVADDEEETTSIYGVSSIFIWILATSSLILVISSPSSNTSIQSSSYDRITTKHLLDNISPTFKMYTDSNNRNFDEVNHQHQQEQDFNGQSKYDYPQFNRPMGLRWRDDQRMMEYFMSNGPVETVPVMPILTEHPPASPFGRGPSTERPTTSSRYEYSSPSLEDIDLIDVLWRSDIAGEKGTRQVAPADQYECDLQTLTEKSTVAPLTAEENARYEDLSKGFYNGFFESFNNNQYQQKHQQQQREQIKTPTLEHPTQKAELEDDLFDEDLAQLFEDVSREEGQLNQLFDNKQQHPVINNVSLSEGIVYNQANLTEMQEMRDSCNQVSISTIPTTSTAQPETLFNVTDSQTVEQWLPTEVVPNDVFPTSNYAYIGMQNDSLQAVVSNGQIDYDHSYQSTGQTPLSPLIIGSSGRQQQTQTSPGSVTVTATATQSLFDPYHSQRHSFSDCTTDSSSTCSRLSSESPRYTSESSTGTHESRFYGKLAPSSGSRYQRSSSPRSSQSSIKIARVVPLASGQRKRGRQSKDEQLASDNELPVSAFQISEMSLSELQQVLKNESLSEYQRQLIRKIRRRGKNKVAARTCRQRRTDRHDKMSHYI
Type: functional
For `Cc1ccc(CN2CCC(n3nccc3NC(=O)c3ccccc3C)CC2)o1`, the IC50 was > 100 µM (inactive). For `Clc1ccccc1/C=C/c1ccnc2ccccc12`, the IC50 was 67.2 µM (inactive). In the case of `Cc1ccc(NC(=O)c2cc(-c3ccco3)on2)cc1C`, the IC50 is reported as > 100 µM (inactive). For `CCOC(=O)Nc1cccc2c1-c1ccc([N+](=O)[O-])cc1C2=O`, the IC50 was > 100 µM (inactive).

Target: T2, Ubiquitin-conjugating enzyme E2 N (Homo sapiens, UniProt P61088);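 note: Dose-response confirmation in a TR-FRET assay detecting UBC13-driven polyubiquitin chain formation, inhibition measured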
T2 sequence (P61088 whole entry): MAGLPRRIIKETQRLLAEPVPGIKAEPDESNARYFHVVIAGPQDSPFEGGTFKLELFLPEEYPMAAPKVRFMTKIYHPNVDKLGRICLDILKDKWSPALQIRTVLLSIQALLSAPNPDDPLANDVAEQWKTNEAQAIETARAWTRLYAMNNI
Type: functional
In the case of `COc1cccc(NC(=O)CN(C)C(=O)c2cccnc2Nc2cccc(C(F)(F)F)c2)c1`, the IC50 is reported as > 20 µM (inactive). For `COc1ccc(-n2nc(C(=O)NCc3cc(OC)ccc3OC)c3c4ccccc4n(C)c3c2=O)cc1`, the IC50 was > 20 µM (inactive). With `c1ccc2c(C[C@@H]3CNCCN3CCCCC3CCCCC3)cccc2c1` the IC50 was > 20 µM (inactive). With `Cc1nc(N)sc1C(=O)OCC(C)C` the IC50 was > 20 µM (inactive). In the case of `Cc1ccc(C(C(=O)NCC2CCCO2)N(C(=O)c2snc(C(N)=O)c2N)c2ccc(C(C)C)cc2)o1` (stereo not drawn), the IC50 is reported as > 20 µM (inactive).
